EC50, AC50 and IC50 data for 19 molecules are collected here from ChEMBL document CHEMBL1201862, “PubChem BioAssay data set” (2004).

For assay [1], the target named is Troponin, cardiac muscle (Homo sapiens, UniProt P19429+P45379+P63316). Nature of the assay: Fluorescence-based biochemical high throughput dose response assay for activators of the calcium sensitivity of cardiac Regulated Thin Filaments (RTF). [Related pubchem assays (depositor defined):AID493008, AID493018, AID504382, AID504383]. The format is protein-complex assay.

Assay [2] has as its target T1, Short transient receptor potential channel 4 (Mus musculus, UniProt Q9QUQ5).
T1 sequence (Q9QUQ5 whole entry): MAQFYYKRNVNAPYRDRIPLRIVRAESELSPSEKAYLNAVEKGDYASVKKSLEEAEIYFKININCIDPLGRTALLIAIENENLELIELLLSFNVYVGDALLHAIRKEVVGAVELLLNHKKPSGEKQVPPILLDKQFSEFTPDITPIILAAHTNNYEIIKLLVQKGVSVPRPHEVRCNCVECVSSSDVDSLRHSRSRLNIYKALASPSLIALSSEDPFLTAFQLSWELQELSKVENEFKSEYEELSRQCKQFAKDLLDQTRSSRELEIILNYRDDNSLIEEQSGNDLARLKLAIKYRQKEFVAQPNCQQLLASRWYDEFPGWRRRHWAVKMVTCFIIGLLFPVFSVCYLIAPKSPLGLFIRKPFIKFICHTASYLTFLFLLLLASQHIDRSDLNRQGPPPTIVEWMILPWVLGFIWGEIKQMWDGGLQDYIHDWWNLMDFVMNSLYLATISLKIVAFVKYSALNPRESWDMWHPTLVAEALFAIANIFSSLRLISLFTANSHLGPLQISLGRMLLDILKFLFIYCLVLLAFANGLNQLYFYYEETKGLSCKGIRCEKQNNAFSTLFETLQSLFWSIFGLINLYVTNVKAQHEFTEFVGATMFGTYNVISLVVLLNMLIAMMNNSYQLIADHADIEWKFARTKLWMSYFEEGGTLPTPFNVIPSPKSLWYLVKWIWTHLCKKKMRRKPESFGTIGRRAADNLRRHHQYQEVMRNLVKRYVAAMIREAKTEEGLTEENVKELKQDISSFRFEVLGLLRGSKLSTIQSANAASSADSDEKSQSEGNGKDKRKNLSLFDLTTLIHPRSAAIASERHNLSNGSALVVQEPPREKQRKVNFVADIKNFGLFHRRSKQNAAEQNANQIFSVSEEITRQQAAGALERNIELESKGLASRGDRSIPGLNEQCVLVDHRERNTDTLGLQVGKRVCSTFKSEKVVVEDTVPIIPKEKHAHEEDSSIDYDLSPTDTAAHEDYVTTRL
Nature of the assay: mouse TRPC4 channel activators, dose response, cell-based, HEK293 TRPC4/mu-opioid, Fluo-4 calcium (AID 434937). The format is functional.

Assay [3] in a line: cytotoxicity in KRAS-transformed pancreatic duct cells, primary screen, cell-based, fluorescence, HTS (AID 431).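 Note: cell line used: HPDE-C7K.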 The format is functional. Conditions: Homo sapiens.
Assay [4] can be described thus: cytotoxicity in HPDE-C7 cells, cell-based, fluorescence, HTS (AID 430). The format is functional. Conditions: Homo sapiens.
A short description of assay [5]: growth suppression of beta-catenin-knockout colon cells, dose response, cell-based, HCT116, human colon tumor (AID 1045).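 Note: HCT116 colon tumor cells with beta catenin knocked out; cells exposed to compound for 60 hours.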 It counts as functional.
Assay [6] addresses FAD-linked sulfhydryl oxidase ALR (Homo sapiens, UniProt P55789). As to the kind of experiment: inhibitors of human ALR sulfhydryl oxidase, dose response, biochemical, H2O2 detection, luminescence, cherry-pick (AID 493248).
A short description of assay [7]: growth suppression of PTEN-null colon cells, dose response, cell-based, HCT116 PTEN knockout (AID 1047).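 Note: HCT116 colon tumor cells with PTEN knocked out; cells exposed to compound for 60 hours before readout; potency for loss of cell viability measured by luminescence.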 The format is functional.
The target in assay [8] is Large T antigen (Simian virus 40, UniProt P03070). The format is functional, Betapolyomavirus macacae.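 Note: Confirmatory-stage PubChem screen for compounds that inhibit SV40 T antigen.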
For assay [9], the target named is DNA dC->dU-editing enzyme APOBEC-3G (Homo sapiens, UniProt Q9HC16). Nature of the assay: Dose Response confirmation of small molecule APOBEC3G DNA Deaminase Inhibitors via a fluorescence-based single-stranded DNA deaminase assay. [Related pubchem assays (depositor defined):AID493012, AID493028]. The format is functional.
The target in assay [10] is DNA dC->dU-editing enzyme APOBEC-3A (Homo sapiens, UniProt P31941). Nature of the assay: APOBEC3A DNA deaminase inhibitors, dose response, biochemical (AID 504722). It counts as functional.
For assay [11], the target named is T2, Acyl-homoserine lactone acylase PvdQ (Pseudomonas aeruginosa (strain LESB58), UniProt Q9I194).
T2 sequence (Q9I194 whole entry): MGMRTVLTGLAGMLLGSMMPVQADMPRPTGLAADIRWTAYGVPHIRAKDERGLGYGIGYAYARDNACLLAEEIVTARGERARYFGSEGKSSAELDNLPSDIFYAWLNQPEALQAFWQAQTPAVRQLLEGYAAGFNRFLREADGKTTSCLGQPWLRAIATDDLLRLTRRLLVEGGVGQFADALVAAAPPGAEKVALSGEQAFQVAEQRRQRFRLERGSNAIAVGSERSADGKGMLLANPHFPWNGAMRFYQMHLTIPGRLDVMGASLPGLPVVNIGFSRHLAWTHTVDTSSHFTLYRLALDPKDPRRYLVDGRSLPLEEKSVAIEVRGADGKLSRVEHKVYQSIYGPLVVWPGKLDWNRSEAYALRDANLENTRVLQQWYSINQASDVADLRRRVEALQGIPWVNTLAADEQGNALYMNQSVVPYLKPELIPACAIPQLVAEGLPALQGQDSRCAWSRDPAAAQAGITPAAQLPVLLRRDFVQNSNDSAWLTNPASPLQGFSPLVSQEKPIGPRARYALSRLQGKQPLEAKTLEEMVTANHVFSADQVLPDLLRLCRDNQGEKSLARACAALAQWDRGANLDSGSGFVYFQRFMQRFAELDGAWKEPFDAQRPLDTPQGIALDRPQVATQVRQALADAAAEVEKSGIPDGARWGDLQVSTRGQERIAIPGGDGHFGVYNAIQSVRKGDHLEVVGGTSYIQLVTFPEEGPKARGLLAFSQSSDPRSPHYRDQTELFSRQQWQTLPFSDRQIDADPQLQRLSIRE
Nature of the assay: P. aeruginosa PvdQ acylase inhibitors, dose response, biochemical, fluorescence, plate reader and imaging, cherry-picks (AID 493231).

Assay [12] deals with T3, High affinity choline transporter 1 (Homo sapiens, UniProt Q9GZV3).
T3 sequence (Q9GZV3 whole entry): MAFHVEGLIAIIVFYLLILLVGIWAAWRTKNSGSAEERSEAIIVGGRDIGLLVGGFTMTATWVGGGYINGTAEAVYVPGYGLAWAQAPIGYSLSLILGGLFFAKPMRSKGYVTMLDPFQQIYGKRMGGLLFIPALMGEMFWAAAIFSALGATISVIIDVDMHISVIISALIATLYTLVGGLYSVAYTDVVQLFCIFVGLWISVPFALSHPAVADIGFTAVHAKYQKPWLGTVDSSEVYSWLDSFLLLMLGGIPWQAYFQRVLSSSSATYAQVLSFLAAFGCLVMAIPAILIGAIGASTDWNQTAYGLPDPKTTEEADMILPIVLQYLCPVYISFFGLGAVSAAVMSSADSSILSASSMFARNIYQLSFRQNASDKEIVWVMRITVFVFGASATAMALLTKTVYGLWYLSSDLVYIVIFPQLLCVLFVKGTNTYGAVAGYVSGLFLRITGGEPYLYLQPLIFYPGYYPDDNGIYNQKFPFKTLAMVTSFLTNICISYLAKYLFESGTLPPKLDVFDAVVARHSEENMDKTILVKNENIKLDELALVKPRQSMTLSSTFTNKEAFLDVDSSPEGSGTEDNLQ
As to the kind of experiment: CHT inhibitors, dose response, cell-based, 5-point CRC, membrane potential dye (AID 504840). The format is functional.

The target of assay [13] is T4, Estrogen receptor beta (Homo sapiens, UniProt Q92731).
In assay [14] the target is T5, Estrogen receptor (Homo sapiens, UniProt P03372).
T5 sequence (P03372 whole entry): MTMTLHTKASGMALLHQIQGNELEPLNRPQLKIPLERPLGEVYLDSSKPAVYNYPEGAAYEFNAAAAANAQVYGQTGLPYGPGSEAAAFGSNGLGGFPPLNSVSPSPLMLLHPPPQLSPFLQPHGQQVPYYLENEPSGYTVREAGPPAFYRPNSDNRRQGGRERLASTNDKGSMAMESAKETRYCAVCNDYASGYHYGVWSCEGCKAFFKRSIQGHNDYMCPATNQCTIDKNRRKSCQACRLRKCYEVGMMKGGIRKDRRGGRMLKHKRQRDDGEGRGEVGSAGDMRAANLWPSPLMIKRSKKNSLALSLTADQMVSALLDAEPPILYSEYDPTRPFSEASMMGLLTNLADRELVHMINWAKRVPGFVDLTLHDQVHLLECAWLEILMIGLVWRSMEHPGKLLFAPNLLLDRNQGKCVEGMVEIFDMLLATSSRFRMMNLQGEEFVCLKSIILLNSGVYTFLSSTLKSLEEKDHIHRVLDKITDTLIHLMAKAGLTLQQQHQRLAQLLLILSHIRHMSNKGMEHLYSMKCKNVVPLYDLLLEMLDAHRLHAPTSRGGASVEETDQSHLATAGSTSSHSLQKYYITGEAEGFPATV

The target of assay [15] is T4, Estrogen receptor beta. Nature of the assay: ERβ–SRC-3 coactivator interaction inhibitors, confirmation, orthogonal assay, biochemical, ELISA, streptavidin-HRP readout (AID 1060). For orientation: In an ELISA, binding on a coated surface is turned into a signal by an enzyme label.
Assay [16] deals with T1, Short transient receptor potential channel 4. As to the kind of experiment: mouse TRPC4 channel inhibitors, dose response, cell-based, HEK293 TRPC4/mu-opioid, Fluo-4 calcium (AID 434942).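 Note: potency of inhibitors blocking the TRPC4 calcium response.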 It counts as functional.
Assay [17] can be described thus: inhibitors of intracellular T. cruzi replication, confirmation, NIH3T3 host cells, beta-gal luminescence (AID 2044).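 Note: intracellular parasites grown in NIH/3T3 mouse fibroblasts as host cells; luminescent beta-galactosidase reporter signal from transgenic T. cruzi replicating inside host cells; inhibitors lower the luminescence signal.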 It counts as functional, cell-based.
Assay [18] can be described thus: cells.
The nature of assay [19]: cytotoxicity toward NIH3T3 fibroblasts, dose response, counter-screen, cell-based, ATP luminescence, mouse fibroblasts (AID 2010).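 Note: cells exposed to compound for about 90 hours before reading.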 It counts as functional. Background: A counterscreen serves to expose hits that act by an unwanted route or on another target.
The target in assay [20] is Voltage-dependent T-type calcium channel subunit alpha-1H (Homo sapiens, UniProt O95180). It counts as functional.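 Note: channel activity triggered by adding a high calcium stimulation buffer.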
Assay [21] relates to Escherichia coli. As to the kind of experiment: microbe, parasite or virus in culture.

Calls of active or inactive are those of the source.

T4 sequence (Q92731 whole entry): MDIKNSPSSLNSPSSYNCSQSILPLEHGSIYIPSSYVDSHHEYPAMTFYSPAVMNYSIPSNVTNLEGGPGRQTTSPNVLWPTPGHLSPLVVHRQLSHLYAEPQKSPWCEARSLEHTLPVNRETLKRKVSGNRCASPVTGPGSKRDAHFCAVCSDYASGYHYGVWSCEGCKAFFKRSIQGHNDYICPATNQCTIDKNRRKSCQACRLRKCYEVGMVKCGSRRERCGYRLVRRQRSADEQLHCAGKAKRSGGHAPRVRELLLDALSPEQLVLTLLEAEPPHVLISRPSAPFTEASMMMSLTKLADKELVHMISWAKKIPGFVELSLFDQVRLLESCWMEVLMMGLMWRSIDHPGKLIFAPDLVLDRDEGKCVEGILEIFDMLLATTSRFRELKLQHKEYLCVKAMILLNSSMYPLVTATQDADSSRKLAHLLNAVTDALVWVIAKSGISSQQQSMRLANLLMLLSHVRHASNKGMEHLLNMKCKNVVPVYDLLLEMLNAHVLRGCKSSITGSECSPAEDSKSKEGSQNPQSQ
Chain of DNA dC->dU-editing enzyme APOBEC-3G (Q9HC16 whole entry): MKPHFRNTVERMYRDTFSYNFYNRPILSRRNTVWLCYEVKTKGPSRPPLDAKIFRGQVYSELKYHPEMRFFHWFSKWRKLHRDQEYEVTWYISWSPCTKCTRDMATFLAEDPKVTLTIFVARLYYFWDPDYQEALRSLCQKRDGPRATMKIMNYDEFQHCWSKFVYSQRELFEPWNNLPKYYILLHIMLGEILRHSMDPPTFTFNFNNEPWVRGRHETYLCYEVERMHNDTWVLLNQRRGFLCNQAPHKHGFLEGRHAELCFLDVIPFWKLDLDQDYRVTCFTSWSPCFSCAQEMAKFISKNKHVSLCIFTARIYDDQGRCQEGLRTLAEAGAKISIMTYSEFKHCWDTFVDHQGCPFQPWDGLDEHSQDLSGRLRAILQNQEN
Chain of DNA dC->dU-editing enzyme APOBEC-3A (P31941 whole entry): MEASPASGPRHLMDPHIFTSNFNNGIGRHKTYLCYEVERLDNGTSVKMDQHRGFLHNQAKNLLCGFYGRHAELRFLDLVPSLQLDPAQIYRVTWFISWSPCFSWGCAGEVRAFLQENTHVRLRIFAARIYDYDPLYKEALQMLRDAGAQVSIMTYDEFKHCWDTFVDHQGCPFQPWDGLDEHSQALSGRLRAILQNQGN
Chain of FAD-linked sulfhydryl oxidase ALR (P55789 whole entry): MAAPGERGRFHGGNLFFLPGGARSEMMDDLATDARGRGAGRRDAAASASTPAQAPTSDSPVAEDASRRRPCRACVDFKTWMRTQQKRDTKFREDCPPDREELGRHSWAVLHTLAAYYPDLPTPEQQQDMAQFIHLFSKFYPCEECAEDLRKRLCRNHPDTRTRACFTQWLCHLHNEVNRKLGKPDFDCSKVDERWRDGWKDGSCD
Chain of Voltage-dependent T-type calcium channel subunit alpha-1H (O95180 whole entry): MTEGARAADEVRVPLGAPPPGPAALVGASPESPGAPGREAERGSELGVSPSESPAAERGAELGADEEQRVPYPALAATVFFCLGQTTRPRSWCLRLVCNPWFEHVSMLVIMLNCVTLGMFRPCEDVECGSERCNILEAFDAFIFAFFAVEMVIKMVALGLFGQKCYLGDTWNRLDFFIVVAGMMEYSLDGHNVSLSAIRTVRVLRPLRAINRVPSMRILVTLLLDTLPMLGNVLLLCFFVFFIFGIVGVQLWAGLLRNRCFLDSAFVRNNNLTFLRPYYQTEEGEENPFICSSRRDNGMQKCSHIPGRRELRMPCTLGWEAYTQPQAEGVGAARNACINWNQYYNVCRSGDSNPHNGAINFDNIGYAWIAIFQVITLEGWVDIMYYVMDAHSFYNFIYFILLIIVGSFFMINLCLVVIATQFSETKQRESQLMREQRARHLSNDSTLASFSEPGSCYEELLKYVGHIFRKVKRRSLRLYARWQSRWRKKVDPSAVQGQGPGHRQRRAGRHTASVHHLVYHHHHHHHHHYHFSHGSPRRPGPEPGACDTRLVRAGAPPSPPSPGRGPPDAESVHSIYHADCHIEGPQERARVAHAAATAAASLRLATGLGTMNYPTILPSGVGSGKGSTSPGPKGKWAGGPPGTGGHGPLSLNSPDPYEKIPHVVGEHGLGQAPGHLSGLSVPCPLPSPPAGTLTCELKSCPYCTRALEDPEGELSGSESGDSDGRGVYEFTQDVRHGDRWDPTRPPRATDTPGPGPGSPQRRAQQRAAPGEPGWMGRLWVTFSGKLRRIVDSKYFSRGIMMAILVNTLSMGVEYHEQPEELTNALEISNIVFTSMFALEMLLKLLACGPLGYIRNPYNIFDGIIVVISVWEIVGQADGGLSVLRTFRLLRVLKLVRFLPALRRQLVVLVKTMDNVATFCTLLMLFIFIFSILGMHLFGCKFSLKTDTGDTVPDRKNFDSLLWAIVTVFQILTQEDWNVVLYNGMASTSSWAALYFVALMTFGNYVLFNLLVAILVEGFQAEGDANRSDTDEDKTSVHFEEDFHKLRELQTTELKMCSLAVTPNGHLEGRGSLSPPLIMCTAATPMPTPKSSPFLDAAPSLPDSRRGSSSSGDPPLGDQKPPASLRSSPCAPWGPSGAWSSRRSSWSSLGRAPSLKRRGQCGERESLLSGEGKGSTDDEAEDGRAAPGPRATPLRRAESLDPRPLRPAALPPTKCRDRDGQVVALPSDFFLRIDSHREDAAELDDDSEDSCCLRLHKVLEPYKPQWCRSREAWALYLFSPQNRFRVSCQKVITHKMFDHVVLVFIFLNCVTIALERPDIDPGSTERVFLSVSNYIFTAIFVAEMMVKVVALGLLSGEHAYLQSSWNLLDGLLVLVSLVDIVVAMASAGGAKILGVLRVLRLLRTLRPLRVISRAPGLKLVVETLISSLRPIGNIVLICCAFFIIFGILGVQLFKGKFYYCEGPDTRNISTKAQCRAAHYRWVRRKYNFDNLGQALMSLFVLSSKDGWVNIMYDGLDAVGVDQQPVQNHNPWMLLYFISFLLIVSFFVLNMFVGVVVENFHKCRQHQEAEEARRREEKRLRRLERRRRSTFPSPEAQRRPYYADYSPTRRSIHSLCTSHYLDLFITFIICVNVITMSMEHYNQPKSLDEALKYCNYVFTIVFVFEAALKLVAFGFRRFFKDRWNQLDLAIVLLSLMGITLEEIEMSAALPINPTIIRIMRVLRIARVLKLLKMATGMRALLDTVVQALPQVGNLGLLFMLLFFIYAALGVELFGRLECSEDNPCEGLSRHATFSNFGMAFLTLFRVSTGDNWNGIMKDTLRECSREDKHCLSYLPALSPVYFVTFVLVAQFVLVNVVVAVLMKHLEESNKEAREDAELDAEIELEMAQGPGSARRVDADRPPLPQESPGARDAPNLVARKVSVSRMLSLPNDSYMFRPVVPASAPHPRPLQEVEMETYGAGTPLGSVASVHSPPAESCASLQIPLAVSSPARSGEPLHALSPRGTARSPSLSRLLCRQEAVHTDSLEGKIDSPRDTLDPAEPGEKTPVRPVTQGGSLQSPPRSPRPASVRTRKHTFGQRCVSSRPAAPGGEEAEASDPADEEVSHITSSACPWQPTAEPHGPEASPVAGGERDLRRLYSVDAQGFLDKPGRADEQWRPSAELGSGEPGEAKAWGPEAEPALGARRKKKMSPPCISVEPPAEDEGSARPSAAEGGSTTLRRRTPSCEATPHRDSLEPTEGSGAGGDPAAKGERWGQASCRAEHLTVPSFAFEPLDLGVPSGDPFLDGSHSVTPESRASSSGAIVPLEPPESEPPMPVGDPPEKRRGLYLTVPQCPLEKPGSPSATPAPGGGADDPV
Chain of Large T antigen (P03070 whole entry): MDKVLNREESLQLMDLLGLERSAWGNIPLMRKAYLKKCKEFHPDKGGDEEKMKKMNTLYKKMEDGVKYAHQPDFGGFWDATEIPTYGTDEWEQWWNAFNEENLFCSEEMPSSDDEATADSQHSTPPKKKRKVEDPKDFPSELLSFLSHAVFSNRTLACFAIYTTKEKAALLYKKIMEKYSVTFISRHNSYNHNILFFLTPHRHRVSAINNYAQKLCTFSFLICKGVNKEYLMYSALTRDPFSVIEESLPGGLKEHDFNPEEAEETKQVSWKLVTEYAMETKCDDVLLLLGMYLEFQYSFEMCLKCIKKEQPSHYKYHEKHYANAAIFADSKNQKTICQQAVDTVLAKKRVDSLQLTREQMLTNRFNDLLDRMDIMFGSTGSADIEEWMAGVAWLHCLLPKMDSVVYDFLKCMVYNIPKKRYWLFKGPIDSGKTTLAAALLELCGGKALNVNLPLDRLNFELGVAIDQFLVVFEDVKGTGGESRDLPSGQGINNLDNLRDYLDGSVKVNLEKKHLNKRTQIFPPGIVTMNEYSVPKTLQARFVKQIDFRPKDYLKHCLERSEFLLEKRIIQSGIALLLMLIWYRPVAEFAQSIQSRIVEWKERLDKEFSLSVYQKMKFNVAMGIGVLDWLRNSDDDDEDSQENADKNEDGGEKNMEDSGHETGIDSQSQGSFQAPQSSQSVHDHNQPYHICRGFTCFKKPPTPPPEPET

In the case of `O=C(c1cnc2ccccc2n1)N1CCN(c2ccc(C(F)(F)F)cn2)CC1`, in [1], the EC50 (in general, the concentration needed to bring the measured effect to its halfway point) was > 71.4 µM (inactive).
For `COc1c(C)cc(C(=O)C2CCCN(Cc3cccc4nccnc34)C2)cc1C` (stereo not given), the concentration giving a half-maximal response (EC50) in assay [2] was 3.35 µM (active).
Consider `CCc1c(C)nc(SCC(=O)CC(=O)OC(C)C)c(C#N)c1C`, for which the figures for the half-maximal effective concentration (EC50) in assay [3] and in assay [4] were 10.7 µM (active) and 7.84 µM (active), respectively.
Turning to `Oc1ccc(Br)cc1-c1nc2cnccn2c1NC1CCCC1`, the half-maximal effective concentration (EC50) in assay [5] is 36.4 µM (active); in assay [3], 12.5 µM (active); in assay [4], 17.3 µM (active); in assay [7], 38.9 µM (active). For the same molecule, the AC50 (usually the midpoint of the concentration-response curve, whichever way the signal moves) in assay [6] is 1.55 µM (active).
For `Fc1cccc(C2NCCc3[nH]cnc32)c1` (stereo not given), in assay [2], the half-maximal effective concentration (EC50) is 3.76 µM (active).
`O=c1c2c3c(sc2n2c(S)nnc2n1-c1ccccc1)CCC3`: the IC50 – broadly, the concentration needed to halve the response being measured – in [8] is 30.4 µM (active); in assay [9], 3.72 µM (active); in assay [10], > 100 µM (inactive).
For the molecule `CCCNS(=O)(=O)c1ccc(OC)c(Cl)c1Cl`, the half-maximal activity concentration (AC50) in assay [11] was 8.91 µM (active).
Take `Cn1c(S)nnc1-c1sc2ccccc2c1Cl`: the IC50 in [12] is 8.32 µM (active); in assay [9] it was 0.936 µM (active); in assay [10], > 100 µM (inactive). For the same molecule, the AC50 in [6] was 12 µM (active).
As for `COc1ccc(NC2=NC(=O)S/C2=C\c2ccc(N(C)C)cc2)cc1`, the IC50 is 12.7 µM (active) in assay [13], 33.3 µM (not active) in assay [14] and 85.5 µM (not active) in assay [15]. In addition, the EC50 in assay [1] is 2.02 µM (active).
With `Cn1cccc1C(C#N)c1cccc(F)c1C#N` (stereo not given), the concentration at half-maximal activity (AC50) in assay [11] was 4.57 µM (active).
As to `O=[N+]([O-])c1ccc(N2CCCC2)nc1`, the half-maximal activity concentration (AC50) in assay [11] is 5.4 µM (active).
For `O=[N+]([O-])c1ccc(CN2CCN(Cc3c[nH]c4ccccc34)CC2)cc1`, the EC50 in assay [16] was 5.96 µM (active); in assay [17], < 100 nM (active); in assay [18], 249 nM (active); in assay [19], > 60 µM (not active).
Consider `C=CCc1ccc(OCC(O)CN2CCC(Cc3ccccc3)CC2)c(OC)c1` (stereo not given), for which the IC50 in [12] was 19.1 µM (active). Besides, the concentration for a half-maximal effect (EC50) in assay [20] was 6.13 µM (active).
Take `Cc1c(NC(=O)CSc2nnc(C(C)Oc3ccc(Cl)cc3)n2-c2ccccc2)c(=O)n(-c2ccccc2)n1C` (stereo not given): the IC50 in [12] is 13.8 µM (active).
Take `O=C(/C=C/c1cccs1)c1cc(Cl)ccc1O`: the AC50 in [11] is 4.67 µM (active).
In the case of `COc1ccc2[nH]c(SCCN(C)C)nc2c1`, the EC50 in [2] was 0.149 µM (active).
For `O=C(Cn1cnc2c(cnn2-c2ccccc2)c1=O)Nc1ccc(S(=O)(=O)N2CCOCC2)cc1`, the EC50 in assay [1] was > 71.5 µM (inactive).
`COc1ccc2c(c1)c(C(O)CN1CCC(Cc3ccccc3)CC1)c(C)n2C` (stereo not given): the concentration at half-maximal activity (AC50) in [21] is 73.6 µM (active).
For `N=c1n(Cc2ccccc2)c2ccccc2n1CC(O)COc1ccccc1` (stereo not given), the IC50 in [12] was 9.78 µM (active). For the same molecule, the half-maximal effective concentration (EC50) in assay [5] is 6.96 µM (active); in assay [20], 2.6 µM (active); in [2] it was 0.267 µM (active); in assay [7], 9.02 µM (active).
